Columns and labels:
Type in all cases: in vivo
[1] = test system: velvetleaf (Abutilon theophrasti); assay: Test C pre-/postemergence greenhouse test, plant response rating 0-100
How it was run: (§1)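 Seeds were sown in a loam soil–sand blend and sprayed preemergence with test chemicals in a non-phytotoxic solvent mixture containing surfactant; postemergence plants in peat/vermiculite medium were treated at 2–18 cm (1- to 4-leaf stage). After 13 to 15 days in the greenhouse, injury was rated visually against untreated controls.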

[2] = test system: Italian ryegrass (Lolium multiflorum); assay: as above
How it was run: as §1

[3] = test system: pigweed (Amaranthus retroflexus); assay: as above
How it was run: as §1

corn (Zea mays) [4] = assay: as above
How it was run: as §1

[5] = test system: ragweed (common ragweed, Ambrosia elatior); assay: as above
How it was run: as §1

[6] = test system: large (Lg) crabgrass (Digitaria sanguinalis); assay: Test A pre-/postemergence greenhouse herbicide test, visual injury rating 0-100
How it was run: (§2)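 Postemergence treatment targeted seedlings 2 to 10 cm high with one to two leaves, while preemergence treatment was a directed spray onto freshly planted loam/sand soil. Injury was scored visually about 10 days later.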

[7] = test system: velvetleaf (Abutilon theophrasti); assay: as above
How it was run: as §2

[8] = test system: morningglory (Ipomoea spp.); assay: as above
How it was run: as §2

[9] = test system: barnyardgrass (Echinochloa crus-galli); assay: as above
How it was run: as §2

[10] = test system: wheat (Triticum aestivum); assay: as above
How it was run: as §2

[11] = test system: pigweed (Amaranthus retroflexus); assay: as above
How it was run: as §2

corn (Zea mays) [12] = assay: as above
How it was run: as §2

[13] = test system: giant foxtail (Setaria faberii); assay: as above
How it was run: as §2

[14] = Postemergence, 250 g ai/ha, scale 0 to 100
[15] = Postemergence, 500 g ai/ha, scale 0 to 100

CCOC(OCC)(c1cccs1)c1c[nH]nc1-c1cc(Cl)cc(Cl)c1 [Compound 27]
Plant response rating (0 to 100), Velvetleaf ([1]; Postemergence, 62 g ai/ha): 65 | Plant response rating (0 to 100), Velvetleaf ([1]; Postemergence, 125 g ai/ha): 70 | Plant response rating, Velvetleaf [1, 14]: 75 | Plant response rating, Velvetleaf [1, 15]: 75 | Plant response rating, Velvetleaf ([1]; Preemergence, 62 g ai/ha): 10 | Plant response rating, Velvetleaf ([1]; Preemergence, 125 g ai/ha): 40 | Plant response rating, Velvetleaf ([1]; Preemergence, 250 g ai/ha): 65 | Plant response rating, Velvetleaf ([1]; Preemergence, 500 g ai/ha): 60 | Plant response rating (0 to 100), Ryegrass, Italian ([2]; Postemergence, 62 g ai/ha): 5 | Plant response rating (0 to 100), Ryegrass, Italian ([2]; Postemergence, 125 g ai/ha): 0 | Plant response rating, Ryegrass, Italian [2, 14]: 5 | Plant response rating, Ryegrass, Italian [2, 15]: 5 | Plant response rating, Ryegrass, Italian ([2]; Preemergence, 62 g ai/ha): 0 | Plant response rating, Ryegrass, Italian ([2]; Preemergence, 125 g ai/ha): 0 | Plant response rating, Ryegrass, Italian ([2]; Preemergence, 250 g ai/ha): 0 | Plant response rating, Ryegrass, Italian ([2]; Preemergence, 500 g ai/ha): 0 | Plant response rating (0 to 100), Pigweed ([3]; Postemergence, 62 g ai/ha): 80 | Plant response rating (0 to 100), Pigweed ([3]; Postemergence, 125 g ai/ha): 95 | Plant response rating, Pigweed [3, 14]: 100 | Plant response rating, Pigweed [3, 15]: 100 | Plant response rating, Pigweed ([3]; Preemergence, 62 g ai/ha): 98 | Plant response rating, Pigweed ([3]; Preemergence, 125 g ai/ha): 100 | Plant response rating, Pigweed ([3]; Preemergence, 250 g ai/ha): 100 | Plant response rating, Pigweed ([3]; Preemergence, 500 g ai/ha): 100 | Plant response rating (0 to 100), Corn (corn (Zea mays) [4]; Postemergence, 62 g ai/ha): 0 | Plant response rating (0 to 100), Corn (corn (Zea mays) [4]; Postemergence, 125 g ai/ha): 0 | Plant response rating, Corn (corn (Zea mays) [4]; [14]): 0 | Plant response rating, Corn (corn (Zea mays) [4]; [15]): 0 | Plant response rating, Corn (corn (Zea mays) [4]; Preemergence, 62 g ai/ha): 0 | Plant response rating, Corn (corn (Zea mays) [4]; Preemergence, 125 g ai/ha): 0 | Plant response rating, Corn (corn (Zea mays) [4]; Preemergence, 250 g ai/ha): 0 | Plant response rating, Corn (corn (Zea mays) [4]; Preemergence, 500 g ai/ha): 0 | Plant response rating (0 to 100), Ragweed ([5]; Postemergence, 62 g ai/ha): 65 | Plant response rating (0 to 100), Ragweed ([5]; Postemergence, 125 g ai/ha): 75 | Plant response rating, Ragweed [5, 14]: 90 | Plant response rating, Ragweed [5, 15]: 75 | Plant response rating, Ragweed ([5]; Preemergence, 62 g ai/ha): 98 | Plant response rating, Ragweed ([5]; Preemergence, 125 g ai/ha): 70 | Plant response rating, Ragweed ([5]; Preemergence, 250 g ai/ha): 70 | Plant response rating, Ragweed ([5]; Preemergence, 500 g ai/ha): 100 | Plant response rating (0 to 100 scale), Crabgrass, Large ([6]; Postemergence, 125 g ai/ha): 0 | Plant response rating (0 to 100 scale), Crabgrass, Large ([6]; Postemergence, 500 g ai/ha): 0 | Crabgrass, Large plant response rating (0 = no effect, 100 = complete control) ([6]; Preemergence, 125 g ai/ha): 0 | Plant response rating (0 to 100 scale), Crabgrass, Large ([6]; Preemergence, 500 g ai/ha): 0 | Plant response rating (0 to 100 scale), Velvetleaf ([7]; Postemergence, 125 g ai/ha): 80 | Plant response rating (0 to 100 scale), Velvetleaf ([7]; Postemergence, 500 g ai/ha): 90 | Velvetleaf plant response rating (0 = no effect, 100 = complete control) ([7]; Preemergence, 125 g ai/ha): 80 | Plant response rating (0 to 100 scale), Velvetleaf ([7]; Preemergence, 500 g ai/ha): 80 | Plant response rating (0 to 100 scale), Morningglory ([8]; Postemergence, 125 g ai/ha): 0 | Plant response rating (0 to 100 scale), Morningglory ([8]; Postemergence, 500 g ai/ha): 0 | Morningglory plant response rating (0 = no effect, 100 = complete control) ([8]; Preemergence, 125 g ai/ha): 0 | Plant response rating (0 to 100 scale), Morningglory ([8]; Preemergence, 500 g ai/ha): 0 | Plant response rating (0 to 100 scale), Barnyardgrass ([9]; Postemergence, 125 g ai/ha): 0 | Plant response rating (0 to 100 scale), Barnyardgrass ([9]; Postemergence, 500 g ai/ha): 0 | Barnyardgrass plant response rating (0 = no effect, 100 = complete control) ([9]; Preemergence, 125 g ai/ha): 0 | Plant response rating (0 to 100 scale), Barnyardgrass ([9]; Preemergence, 500 g ai/ha): 0 | Plant response rating (0 to 100 scale), Wheat ([10]; Postemergence, 125 g ai/ha): 0 | Plant response rating (0 to 100 scale), Wheat ([10]; Postemergence, 500 g ai/ha): 0 | Wheat plant response rating (0 = no effect, 100 = complete control) ([10]; Preemergence, 125 g ai/ha): 0 | Plant response rating (0 to 100 scale), Wheat ([10]; Preemergence, 500 g ai/ha): 0 | Plant response rating (0 to 100 scale), Pigweed ([11]; Postemergence, 125 g ai/ha): 80 | Plant response rating (0 to 100 scale), Pigweed ([11]; Postemergence, 500 g ai/ha): 100 | Pigweed plant response rating (0 = no effect, 100 = complete control) ([11]; Preemergence, 125 g ai/ha): 100 | Plant response rating (0 to 100 scale), Pigweed ([11]; Preemergence, 500 g ai/ha): 100 | Plant response rating (0 to 100 scale), Corn (corn (Zea mays) [12]; Postemergence, 125 g ai/ha): 0 | Plant response rating (0 to 100 scale), Corn (corn (Zea mays) [12]; Postemergence, 500 g ai/ha): 0 | Corn plant response rating (0 = no effect, 100 = complete control) (corn (Zea mays) [12]; Preemergence, 125 g ai/ha): 0 | Plant response rating (0 to 100 scale), Corn (corn (Zea mays) [12]; Preemergence, 500 g ai/ha): 0 | Plant response rating (0 to 100 scale), Foxtail, Giant ([13]; Postemergence, 125 g ai/ha): 0 | Plant response rating (0 to 100 scale), Foxtail, Giant ([13]; Postemergence, 500 g ai/ha): 0 | Foxtail, Giant plant response rating (0 = no effect, 100 = complete control) ([13]; Preemergence, 125 g ai/ha): 0 | Plant response rating (0 to 100 scale), Foxtail, Giant ([13]; Preemergence, 500 g ai/ha): 0

Source: patent US10167262B2, “Herbicidal substituted 3-arylpyrazoles” (FMC CORPORATION, priority 2014, dated 2019)
